What was measured:
Assay in all cases: relative viability (nuclei count vs DMSO), 5 days (fraction); higher = more cells survive
201T = tested on: 201T
Procedure, shortened: (§1)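 Nuclei were stained with Hoechst during a one-step fixation (final 0.05% Triton X-100, 1% formaldehyde, 1 ug/ml Hoechst) carried out 5 days after dosing, then counted on 4× images. The cells, lung cancer lines in 1536-well plates, had been dosed by pin tool the day after seeding with one drug alone or a fixed anchor-drug dose plus five library-drug doses (not always all listed) in √10 steps. Relative viability is the nuclei count in treated wells divided by that in vehicle wells, and each value is the median of duplicate plates.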

BEN = tested on: BEN
Procedure, shortened: as §1

EMC-BAC-2 = tested on: EMC-BAC-2
Procedure, shortened: as §1

HARA = tested on: HARA
Procedure, shortened: as §1

LCLC-103H = tested on: LCLC-103H
Procedure, shortened: as §1

LOU-NH91 = tested on: LOU-NH91
Procedure, shortened: as §1

NCI-H1395 = tested on: NCI-H1395
Procedure, shortened: as §1

NCI-H1993 = tested on: NCI-H1993
Procedure, shortened: as §1

NCI-H2023 = tested on: NCI-H2023
Procedure, shortened: as §1

NCI-H2087 = tested on: NCI-H2087
Procedure, shortened: as §1

NCI-H2126 = tested on: NCI-H2126
Procedure, shortened: as §1

NCI-H2347 = tested on: NCI-H2347
Procedure, shortened: as §1

NCI-H23 = tested on: NCI-H23
Procedure, shortened: as §1

NCI-H3122 = tested on: NCI-H3122
Procedure, shortened: as §1

NCI-H441 = tested on: NCI-H441
Procedure, shortened: as §1

NCI-H596 = tested on: NCI-H596
Procedure, shortened: as §1

NCI-H647 = tested on: NCI-H647
Procedure, shortened: as §1

NCI-H650 = tested on: NCI-H650
Procedure, shortened: as §1

NCI-H727 = tested on: NCI-H727
Procedure, shortened: as §1

NCI-H838 = tested on: NCI-H838
Procedure, shortened: as §1

HCC-44 = tested on: HCC-44
Procedure, shortened: as §1

COc1nc(C)cnc1NS(=O)(=O)c1cccnc1-c1ccc(-c2nnco2)cc1 [Zibotentan] + COc1cc2c(Oc3ccc(NC(=O)C4(C(=O)Nc5ccc(F)cc5)CC4)cc3F)ccnc2cc1OCCCN1CCOCC1 [Foretinib] (partner 0.25 µM)
relative viability (201T; first compound 0.08 µM): 1.16
relative viability (201T; first compound 0.253 µM): 0.956
relative viability (201T; first compound 0.8 µM): 1.04
relative viability (201T; first compound 2.53 µM): 1.15
relative viability (BEN; first compound 0.08 µM): 0.739
relative viability (BEN; first compound 0.253 µM): 0.475
relative viability (BEN; first compound 0.8 µM): 0.819
relative viability (BEN; first compound 2.53 µM): 0.639
relative viability (EMC-BAC-2; first compound 0.08 µM): 1.07
relative viability (EMC-BAC-2; first compound 0.8 µM): 1.05
relative viability (EMC-BAC-2; first compound 2.53 µM): 1.05
relative viability (HARA; first compound 0.08 µM): 1
relative viability (HARA; first compound 0.253 µM): 0.743
relative viability (HARA; first compound 0.8 µM): 0.883
relative viability (HARA; first compound 2.53 µM): 0.874
relative viability (LCLC-103H; first compound 0.08 µM): 0.928
relative viability (LCLC-103H; first compound 0.253 µM): 0.886
relative viability (LCLC-103H; first compound 0.8 µM): 0.797
relative viability (LCLC-103H; first compound 2.53 µM): 0.838
relative viability (LOU-NH91; first compound 0.08 µM): 0.903
relative viability (LOU-NH91; first compound 0.253 µM): 0.841
relative viability (LOU-NH91; first compound 0.8 µM): 0.969
relative viability (LOU-NH91; first compound 2.53 µM): 0.888
relative viability (NCI-H1395; first compound 0.08 µM): 1.02
relative viability (NCI-H1395; first compound 0.253 µM): 1.07
relative viability (NCI-H1395; first compound 0.8 µM): 1.04
relative viability (NCI-H1395; first compound 2.53 µM): 0.941
relative viability (NCI-H1993; first compound 0.08 µM): 0.753
relative viability (NCI-H1993; first compound 0.253 µM): 0.811
relative viability (NCI-H1993; first compound 0.8 µM): 0.702
relative viability (NCI-H1993; first compound 2.53 µM): 0.832
relative viability (NCI-H2023; first compound 0.08 µM): 0.942
relative viability (NCI-H2023; first compound 0.253 µM): 0.668
relative viability (NCI-H2023; first compound 0.8 µM): 0.932
relative viability (NCI-H2023; first compound 2.53 µM): 0.978
relative viability (NCI-H2087; first compound 0.08 µM): 1.22
relative viability (NCI-H2087; first compound 0.253 µM): 1.04
relative viability (NCI-H2087; first compound 0.8 µM): 1.16
relative viability (NCI-H2087; first compound 2.53 µM): 1.04
relative viability (NCI-H2126; first compound 0.08 µM): 1.33
relative viability (NCI-H2126; first compound 0.253 µM): 1.26
relative viability (NCI-H2126; first compound 0.8 µM): 0.982
relative viability (NCI-H2126; first compound 2.53 µM): 1.14
relative viability (NCI-H2347; first compound 0.08 µM): 0.995
relative viability (NCI-H2347; first compound 0.253 µM): 0.896
relative viability (NCI-H2347; first compound 0.8 µM): 0.947
relative viability (NCI-H2347; first compound 2.53 µM): 0.655
relative viability (NCI-H23; first compound 0.08 µM): 1.08
relative viability (NCI-H23; first compound 0.253 µM): 0.766
relative viability (NCI-H23; first compound 0.8 µM): 0.986
relative viability (NCI-H23; first compound 2.53 µM): 1.17
relative viability (NCI-H3122; first compound 0.08 µM): 1.02
relative viability (NCI-H3122; first compound 0.253 µM): 0.975
relative viability (NCI-H3122; first compound 0.8 µM): 0.983
relative viability (NCI-H3122; first compound 2.53 µM): 1.02
relative viability (NCI-H441; first compound 0.08 µM): 1.11
relative viability (NCI-H441; first compound 0.253 µM): 0.745
relative viability (NCI-H441; first compound 0.8 µM): 1.03
relative viability (NCI-H441; first compound 2.53 µM): 1.04
relative viability (NCI-H596; first compound 0.08 µM): 0.899
relative viability (NCI-H596; first compound 0.253 µM): 0.794
relative viability (NCI-H596; first compound 0.8 µM): 0.768
relative viability (NCI-H596; first compound 2.53 µM): 0.914
relative viability (NCI-H647; first compound 0.08 µM): 1.13
relative viability (NCI-H647; first compound 0.253 µM): 0.996
relative viability (NCI-H647; first compound 0.8 µM): 1.06
relative viability (NCI-H647; first compound 2.53 µM): 1.29
relative viability (NCI-H650; first compound 0.08 µM): 1.1
relative viability (NCI-H650; first compound 0.253 µM): 0.877
relative viability (NCI-H650; first compound 0.8 µM): 1.07
relative viability (NCI-H650; first compound 2.53 µM): 0.994
relative viability (NCI-H727; first compound 0.08 µM): 1.07
relative viability (NCI-H727; first compound 0.253 µM): 0.862
relative viability (NCI-H727; first compound 0.8 µM): 0.893
relative viability (NCI-H727; first compound 2.53 µM): 0.811
relative viability (NCI-H838; first compound 0.08 µM): 0.992
relative viability (NCI-H838; first compound 0.253 µM): 0.934
relative viability (NCI-H838; first compound 0.8 µM): 1.06
relative viability (NCI-H838; first compound 2.53 µM): 1.08

COc1nc(C)cnc1NS(=O)(=O)c1cccnc1-c1ccc(-c2nnco2)cc1 [Zibotentan] + CC1(C)CCC(c2ccc(Cl)cc2)=C(CN2CCN(c3ccc(C(=O)NS(=O)(=O)c4ccc(N[C@H](CCN5CCOCC5)CSc5ccccc5)c(S(=O)(=O)C(F)(F)F)c4)cc3)CC2)C1 [Navitoclax] (partner 0.5 µM)
relative viability (201T; first compound 0.08 µM): 1.23
relative viability (201T; first compound 0.253 µM): 1.21
relative viability (201T; first compound 0.8 µM): 1.23
relative viability (201T; first compound 2.53 µM): 1.21
relative viability (BEN; first compound 0.08 µM): 0.0813
relative viability (BEN; first compound 0.253 µM): 0.0646
relative viability (BEN; first compound 0.8 µM): 0.059
relative viability (BEN; first compound 2.53 µM): 0.0664
relative viability (EMC-BAC-2; first compound 0.08 µM): 1.11
relative viability (EMC-BAC-2; first compound 0.253 µM): 1.17
relative viability (EMC-BAC-2; first compound 0.8 µM): 1.18
relative viability (EMC-BAC-2; first compound 2.53 µM): 1.19
relative viability (HARA; first compound 0.08 µM): 1.2
relative viability (HARA; first compound 0.253 µM): 1.12
relative viability (HARA; first compound 0.8 µM): 1.11
relative viability (HARA; first compound 2.53 µM): 1.11
relative viability (HCC-44; first compound 0.08 µM): 1.24
relative viability (HCC-44; first compound 0.253 µM): 0.887
relative viability (HCC-44; first compound 0.8 µM): 0.99
relative viability (HCC-44; first compound 2.53 µM): 1.04
relative viability (LOU-NH91; first compound 0.08 µM): 0.693
relative viability (LOU-NH91; first compound 0.253 µM): 0.635
relative viability (LOU-NH91; first compound 0.8 µM): 0.812
relative viability (LOU-NH91; first compound 2.53 µM): 0.66
relative viability (NCI-H1395; first compound 0.08 µM): 1.54
relative viability (NCI-H1395; first compound 0.253 µM): 1.03
relative viability (NCI-H1395; first compound 0.8 µM): 1.07
relative viability (NCI-H1395; first compound 2.53 µM): 1.12
relative viability (NCI-H1993; first compound 0.253 µM): 0.955
relative viability (NCI-H1993; first compound 0.8 µM): 0.813
relative viability (NCI-H1993; first compound 2.53 µM): 0.956
relative viability (NCI-H2023; first compound 0.08 µM): 1.05
relative viability (NCI-H2023; first compound 0.253 µM): 0.922
relative viability (NCI-H2023; first compound 0.8 µM): 1.01
relative viability (NCI-H2023; first compound 2.53 µM): 1.1
relative viability (NCI-H2087; first compound 0.08 µM): 1.03
relative viability (NCI-H2087; first compound 0.253 µM): 1.15
relative viability (NCI-H2087; first compound 0.8 µM): 0.983
relative viability (NCI-H2087; first compound 2.53 µM): 1.05
relative viability (NCI-H2126; first compound 0.08 µM): 0.876
relative viability (NCI-H2126; first compound 0.253 µM): 0.796
relative viability (NCI-H2126; first compound 0.8 µM): 0.724
relative viability (NCI-H2126; first compound 2.53 µM): 0.883
relative viability (NCI-H2347; first compound 0.08 µM): 0.746
relative viability (NCI-H2347; first compound 0.253 µM): 0.776
relative viability (NCI-H2347; first compound 0.8 µM): 0.741
relative viability (NCI-H2347; first compound 2.53 µM): 0.77
relative viability (NCI-H23; first compound 0.08 µM): 0.906
relative viability (NCI-H23; first compound 0.253 µM): 0.773
relative viability (NCI-H23; first compound 0.8 µM): 0.872
relative viability (NCI-H23; first compound 2.53 µM): 0.853
relative viability (NCI-H3122; first compound 0.08 µM): 1.04
relative viability (NCI-H3122; first compound 0.253 µM): 1.01
relative viability (NCI-H3122; first compound 0.8 µM): 1.04
relative viability (NCI-H3122; first compound 2.53 µM): 1.06
relative viability (NCI-H441; first compound 0.08 µM): 0.635
relative viability (NCI-H441; first compound 0.8 µM): 0.794
relative viability (NCI-H441; first compound 2.53 µM): 0.877
relative viability (NCI-H596; first compound 0.08 µM): 1.19
relative viability (NCI-H596; first compound 0.253 µM): 0.896
relative viability (NCI-H596; first compound 0.8 µM): 0.958
relative viability (NCI-H596; first compound 2.53 µM): 1.05
relative viability (NCI-H647; first compound 0.08 µM): 1.34
relative viability (NCI-H647; first compound 0.253 µM): 0.875
relative viability (NCI-H647; first compound 0.8 µM): 1
relative viability (NCI-H647; first compound 2.53 µM): 1.17
relative viability (NCI-H727; first compound 0.08 µM): 0.48
relative viability (NCI-H727; first compound 0.253 µM): 0.396
relative viability (NCI-H727; first compound 0.8 µM): 0.48
relative viability (NCI-H727; first compound 2.53 µM): 0.435
relative viability (NCI-H838; first compound 0.08 µM): 1.15
relative viability (NCI-H838; first compound 0.253 µM): 1.1
relative viability (NCI-H838; first compound 0.8 µM): 1.18
relative viability (NCI-H838; first compound 2.53 µM): 1.24

From the supplement of paper PMC10307832
